Normalised inhibition (eCFP-eYFP dual reporter) data for 49 substances are collected here from the OligoGym collection.

Oligonucleotides are written 5' to 3', each unit as a sugar letter and its base; * is a phosphorothioate linkage, no mark a phosphodiester; rarer units and linkages stand in square brackets, end groups in braces. Plain capitals give the bases only. d = 2'-deoxy (DNA); r = 2'-OH (RNA)
Also: test concentration or dose not given here.

The target of the series is NOG. Kind of series: reporter assay of Huesken 2005. The note with it: siRNA. On the technique in general: Reporter assays use an easily measured gene product as a stand-in for the process of interest.
Regarding “sense rArCrGrArCrCrUrGrGrGrCrArGrCrCrGrCrUrUdTdT / antisense rArArGrCrGrGrCrUrGrCrCrCrArGrGrUrCrGrUdTdC”, the normalised inhibition (eCFP-eYFP dual reporter) stood at 51.1%.

As for “sense rArCrUrArUrCrUrCrCrArCrArUrCrCrGrCrCrCdTdT / antisense rGrGrGrCrGrGrArUrGrUrGrGrArGrArUrArGrUdGdC”, the normalised inhibition (eCFP-eYFP dual reporter) came to 52.8%.

As for “sense rArGrArGrUrUrCrUrCrCrGrArGrGrGrCrUrUrGdTdT / antisense rCrArArGrCrCrCrUrCrGrGrArGrArArCrUrCrUdAdG”, the normalised inhibition (eCFP-eYFP dual reporter) came to 55.1%.

For the substance “sense rArGrCrArArGrArArGrCrUrGrCrGrGrArGrGrAdTdT / antisense rUrCrCrUrCrCrGrCrArGrCrUrUrCrUrUrGrCrUdTdA”, the normalised inhibition (eCFP-eYFP dual reporter) came out at 97.7%.

As to “sense rArGrGrGrCrArUrGrGrUrGrUrGrCrArArGrCrCdTdT / antisense rGrGrCrUrUrGrCrArCrArCrCrArUrGrCrCrCrUdCdG”, the normalised inhibition (eCFP-eYFP dual reporter) is 75.7%.

Turning to “sense rArGrUrArArGrCrGrCrUrCrGrUrGrCrUrCrCrGdTdT / antisense rCrGrGrArGrCrArCrGrArGrCrGrCrUrUrArCrUdGdA”, the normalised inhibition (eCFP-eYFP dual reporter) came to 51%.

“sense rArUrCrCrGrCrCrCrGrGrCrArCrCrCrArGrCrGdTdT / antisense rCrGrCrUrGrGrGrUrGrCrCrGrGrGrCrGrGrArUdGdT”: the normalised inhibition (eCFP-eYFP dual reporter) worked out at 42.7%.

Consider “sense rArUrCrUrCrCrArCrArUrCrCrGrCrCrCrGrGrCdTdT / antisense rGrCrCrGrGrGrCrGrGrArUrGrUrGrGrArGrArUdAdG”, for which the normalised inhibition (eCFP-eYFP dual reporter) turned out to be 60.2%.

As to “sense rArUrGrGrUrGrUrGrCrArArGrCrCrGrUrCrCrAdTdT / antisense rUrGrGrArCrGrGrCrUrUrGrCrArCrArCrCrArUdGdC”, the normalised inhibition (eCFP-eYFP dual reporter) came to 86.2%.

Take “sense rArUrUrCrUrGrCrCrCrCrGrUrGrCrUrGrUrArCdTdT / antisense rGrUrArCrArGrCrArCrGrGrGrGrCrArGrArArUdGdT”: the normalised inhibition (eCFP-eYFP dual reporter) was determined as 51%.

As to “sense rCrArArGrGrArArArArGrGrArUrCrUrGrArArCdTdT / antisense rGrUrUrCrArGrArUrCrCrUrUrUrUrCrCrUrUrGdGdG”, the normalised inhibition (eCFP-eYFP dual reporter) came to 95.1%.

Turning to “sense rCrArCrCrUrCrArCrGrGrUrGrCrUrGrCrGrGrUdTdT / antisense rArCrCrGrCrArGrCrArCrCrGrUrGrArGrGrUrGdCdA”, the normalised inhibition (eCFP-eYFP dual reporter) amounted to 56.3%.

On to “sense rCrArGrArCrCrCrUrArUrCrUrUrUrGrArCrCrCdTdT / antisense rGrGrGrUrCrArArArGrArUrArGrGrGrUrCrUrGdGdG”, for which the normalised inhibition (eCFP-eYFP dual reporter) amounted to 88.8%.

Consider “sense rCrArGrCrGrCrCrUrArArGrCrArArGrArArGrCdTdT / antisense rGrCrUrUrCrUrUrGrCrUrUrArGrGrCrGrCrUrGdCdT”, for which the normalised inhibition (eCFP-eYFP dual reporter) amounted to 62.6%.

For “sense rCrArGrCrUrGrCrUrUrCrArGrUrArArGrCrGrCdTdT / antisense rGrCrGrCrUrUrArCrUrGrArArGrCrArGrCrUrGdCdC”, the normalised inhibition (eCFP-eYFP dual reporter) is 56.5%.

Regarding “sense rCrCrArCrArUrCrCrGrCrCrCrGrGrCrArCrCrCdTdT / antisense rGrGrGrUrGrCrCrGrGrGrCrGrGrArUrGrUrGrGdAdG”, the normalised inhibition (eCFP-eYFP dual reporter) was determined as 51.4%.

Take “sense rCrCrArGrCrUrGrCrUrGrCrGrGrCrArGrCrGrGdTdT / antisense rCrCrGrCrUrGrCrCrGrCrArGrCrArGrCrUrGrGdTdC”: the normalised inhibition (eCFP-eYFP dual reporter) was 78.3%.

Take “sense rCrCrCrArGrCrGrArCrArArCrCrUrGrCrCrCrCdTdT / antisense rGrGrGrGrCrArGrGrUrUrGrUrCrGrCrUrGrGrGdTdG”: the normalised inhibition (eCFP-eYFP dual reporter) was 68.1%.

As for “sense rCrCrCrGrUrGrCrUrGrUrArCrGrCrGrUrGrGrAdTdT / antisense rUrCrCrArCrGrCrGrUrArCrArGrCrArCrGrGrGdGdC”, the normalised inhibition (eCFP-eYFP dual reporter) was determined as 60.3%.

As for “sense rCrCrUrArUrCrUrUrUrGrArCrCrCrCrArArGrGdTdT / antisense rCrCrUrUrGrGrGrGrUrCrArArArGrArUrArGrGdGdT”, the normalised inhibition (eCFP-eYFP dual reporter) was 89.1%.

Turning to “sense rCrCrUrCrArCrGrGrUrGrCrUrGrCrGrGrUrGrGdTdT / antisense rCrCrArCrCrGrCrArGrCrArCrCrGrUrGrArGrGdTdG”, the normalised inhibition (eCFP-eYFP dual reporter) came out at 70.1%.

As for “sense rCrCrUrCrArUrCrGrArArCrArCrCrCrArGrArCdTdT / antisense rGrUrCrUrGrGrGrUrGrUrUrCrGrArUrGrArGrGdTdC”, the normalised inhibition (eCFP-eYFP dual reporter) is 79.3%.

Consider “sense rCrCrUrGrGrUrGrGrArCrCrUrCrArUrCrGrArAdTdT / antisense rUrUrCrGrArUrGrArGrGrUrCrCrArCrCrArGrGdGdG”, for which the normalised inhibition (eCFP-eYFP dual reporter) amounted to 81.7%.

For the substance “sense rCrGrCrArGrArCrArUrUrCrUrGrCrCrCrCrGrUdTdT / antisense rArCrGrGrGrGrCrArGrArArUrGrUrCrUrGrCrGdAdC”, the normalised inhibition (eCFP-eYFP dual reporter) stood at 53%.

In the case of “sense rCrGrCrUrGrCrUrGrCrGrCrUrCrGrCrUrGrCrUdTdT / antisense rArGrCrArGrCrGrArGrCrGrCrArGrCrArGrCrGdTdC”, the normalised inhibition (eCFP-eYFP dual reporter) amounted to 73.4%.

Consider “sense rCrUrGrArArCrGrArGrArCrGrCrUrGrCrUrGrCdTdT / antisense rGrCrArGrCrArGrCrGrUrCrUrCrGrUrUrCrArGdAdT”, for which the normalised inhibition (eCFP-eYFP dual reporter) was 46.9%.

Take “sense rCrUrGrGrCrGrGrArGrCrUrGrGrArCrCrArGrCdTdT / antisense rGrCrUrGrGrUrCrCrArGrCrUrCrCrGrCrCrArGdGdT”: the normalised inhibition (eCFP-eYFP dual reporter) came to 58.7%.

As for “sense rGrArArCrGrArCrCrUrGrGrGrCrArGrCrCrGrCdTdT / antisense rGrCrGrGrCrUrGrCrCrCrArGrGrUrCrGrUrUrCdCdA”, the normalised inhibition (eCFP-eYFP dual reporter) is 59.1%.

As for “sense rGrArArCrGrArGrArCrGrCrUrGrCrUrGrCrGrCdTdT / antisense rGrCrGrCrArGrCrArGrCrGrUrCrUrCrGrUrUrCdAdG”, the normalised inhibition (eCFP-eYFP dual reporter) worked out at 74.1%.

For “sense rGrArArGrCrArGrCrGrCrCrUrArArGrCrArArGdTdT / antisense rCrUrUrGrCrUrUrArGrGrCrGrCrUrGrCrUrUrCdTdT”, the normalised inhibition (eCFP-eYFP dual reporter) worked out at 83%.

Consider “sense rGrArArGrCrUrGrCrGrGrArGrGrArArGrUrUrAdTdT / antisense rUrArArCrUrUrCrCrUrCrCrGrCrArGrCrUrUrCdTdT”, for which the normalised inhibition (eCFP-eYFP dual reporter) amounted to 102%.

“sense rGrArCrCrArGrCrUrGrCrUrGrCrGrGrCrArGrCdTdT / antisense rGrCrUrGrCrCrGrCrArGrCrArGrCrUrGrGrUrCdCdA”: the normalised inhibition (eCFP-eYFP dual reporter) stood at 55.2%.

Take “sense rGrArCrCrCrArGrGrCrUrUrCrArUrGrGrCrCrAdTdT / antisense rUrGrGrCrCrArUrGrArArGrCrCrUrGrGrGrUrCdGdT”: the normalised inhibition (eCFP-eYFP dual reporter) came out at 82.6%.

In the case of “sense rGrArCrCrUrGrGrGrCrArGrCrCrGrCrUrUrUrUdTdT / antisense rArArArArGrCrGrGrCrUrGrCrCrCrArGrGrUrCdGdT”, the normalised inhibition (eCFP-eYFP dual reporter) came to 77.1%.

For “sense rGrArCrGrCrUrGrCrUrGrCrGrCrUrCrGrCrUrGdTdT / antisense rCrArGrCrGrArGrCrGrCrArGrCrArGrCrGrUrCdTdC”, the normalised inhibition (eCFP-eYFP dual reporter) is 70.9%.

Turning to “sense rGrArGrCrUrGrGrArCrCrArGrCrUrGrCrUrGrCdTdT / antisense rGrCrArGrCrArGrCrUrGrGrUrCrCrArGrCrUrCdCdG”, the normalised inhibition (eCFP-eYFP dual reporter) came out at 71.8%.

For “sense rGrArUrCrArArArGrGrGrCrUrArGrArGrUrUrCdTdT / antisense rGrArArCrUrCrUrArGrCrCrCrUrUrUrGrArUrCdTdC”, the normalised inhibition (eCFP-eYFP dual reporter) worked out at 78.3%.

In the case of “sense rGrArUrGrUrGrGrCrUrGrUrGrGrUrCrGrCrArGdTdT / antisense rCrUrGrCrGrArCrCrArCrArGrCrCrArCrArUrCdTdG”, the normalised inhibition (eCFP-eYFP dual reporter) stood at 81.7%.

Take “sense rGrCrArGrCrCrGrCrUrUrUrUrGrGrCrCrGrCrGdTdT / antisense rCrGrCrGrGrCrCrArArArArGrCrGrGrCrUrGrCdCdC”: the normalised inhibition (eCFP-eYFP dual reporter) was determined as 46.4%.

In the case of “sense rGrCrArGrCrUrGrCrUrUrCrArGrUrArArGrCrGdTdT / antisense rCrGrCrUrUrArCrUrGrArArGrCrArGrCrUrGrCdCdC”, the normalised inhibition (eCFP-eYFP dual reporter) stood at 63.1%.

For “sense rGrCrCrCrGrGrCrArCrCrCrArGrCrGrArCrArAdTdT / antisense rUrUrGrUrCrGrCrUrGrGrGrUrGrCrCrGrGrGrCdGdG”, the normalised inhibition (eCFP-eYFP dual reporter) was 88.4%.

As to “sense rGrCrCrGrGrCrGrGrCrCrArGrCrArCrUrArUrCdTdT / antisense rGrArUrArGrUrGrCrUrGrGrCrCrGrCrCrGrGrCdCdG”, the normalised inhibition (eCFP-eYFP dual reporter) came to 82.2%.

In the case of “sense rGrCrCrGrUrCrCrArArGrUrCrCrGrUrGrCrArCdTdT / antisense rGrUrGrCrArCrGrGrArCrUrUrGrGrArCrGrGrCdTdT”, the normalised inhibition (eCFP-eYFP dual reporter) stood at 66.1%.

Take “sense rGrCrCrUrArArGrCrArArGrArArGrCrUrGrCrGdTdT / antisense rCrGrCrArGrCrUrUrCrUrUrGrCrUrUrArGrGrCdGdC”: the normalised inhibition (eCFP-eYFP dual reporter) is 85.7%.

Take “sense rGrCrGrArGrArUrCrArArArGrGrGrCrUrArGrAdTdT / antisense rUrCrUrArGrCrCrCrUrUrUrGrArUrCrUrCrGrCdTdC”: the normalised inhibition (eCFP-eYFP dual reporter) worked out at 96.7%.

With “sense rGrCrGrGrCrArGrCrGrGrCrCrGrUrCrGrGrGrGdTdT / antisense rCrCrCrCrGrArCrGrGrCrCrGrCrUrGrCrCrGrCdAdG”, the normalised inhibition (eCFP-eYFP dual reporter) came to 70.5%.

On to “sense rGrCrUrGrCrGrCrUrCrGrCrUrGrCrUrCrGrGrGdTdT / antisense rCrCrCrGrArGrCrArGrCrGrArGrCrGrCrArGrCdAdG”, for which the normalised inhibition (eCFP-eYFP dual reporter) worked out at 67.1%.

As for “sense rGrCrUrGrCrGrGrUrGrGrCrGrCrUrGrUrCrArGdTdT / antisense rCrUrGrArCrArGrCrGrCrCrArCrCrGrCrArGrCdAdC”, the normalised inhibition (eCFP-eYFP dual reporter) worked out at 80.5%.

In the case of “sense rGrCrUrGrCrUrGrCrGrCrUrCrGrCrUrGrCrUrCdTdT / antisense rGrArGrCrArGrCrGrArGrCrGrCrArGrCrArGrCdGdT”, the normalised inhibition (eCFP-eYFP dual reporter) is 78.8%.
